# Data published in patent publication US20260174739A1 (priority 2022, published 2026).
# Read-outs that look alike come from different tables or passages of the source.
# Assays:
# Sigma2 receptor = Sigma2 receptor (Homo sapiens, UniProt Q5BJF2); assay: Sigma receptor affinity assay ([3H]-DTG binding), Sigma2R
# Description: (§1) Cell membrane: the membrane protein adopted in the experiment was extracted from an HEK293 cell strain stably expressing Sigmal receptor and an HEK293 cell strain stably expressing Sigma2 receptor, which were constructed by WuXi AppTec.
# (§2) • 1) Detection buffer: 50 mM Tris-HCl, pH=7.4, stored at 4° C. • 2) Sigma 1R assay plate washing buffer: 50 mM Tris-HCl, pH=7.4, stored at 4° C.; sigma2R assay plate washing buffer: 50 mM Tris-HCl, 100 mM NaCl, pH=7.4, stored at 4° C. • 3) The compounds were diluted to each working concentration: 4-fold serial gradient dilutions for 8 concentrations.
# The affinity inhibition constant Ki was calculated using the Cheng Prusoff equation: […]
# [1] = In vivo metabolism (pharmacokinetic) experiment in mice; design: species or system male ICR mice; settings: mouse
# Summary of the method: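 Fasted (12 h) male ICR mice received compound in 5% DMSO/5% Solutol HS15/90% saline at 2.5 mg/kg iv or 10 mg/kg po. Plasma and brain sampled 0.083–8 h (n=3 per time point) and analysed by LC-MS/MS. Parameters derived by non-compartmental analysis.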
# human SERT = human SERT (Homo sapiens, UniProt P31645); assay: Inhibitory activity assay against 5-HT transporter (neurotransmitter transporter uptake assay kit); format: cell-based; settings: HEK-293 cells overexpressing human SERT; read-out: 5-HTT (IC50)
# human SERT, sequence (P31645 whole entry): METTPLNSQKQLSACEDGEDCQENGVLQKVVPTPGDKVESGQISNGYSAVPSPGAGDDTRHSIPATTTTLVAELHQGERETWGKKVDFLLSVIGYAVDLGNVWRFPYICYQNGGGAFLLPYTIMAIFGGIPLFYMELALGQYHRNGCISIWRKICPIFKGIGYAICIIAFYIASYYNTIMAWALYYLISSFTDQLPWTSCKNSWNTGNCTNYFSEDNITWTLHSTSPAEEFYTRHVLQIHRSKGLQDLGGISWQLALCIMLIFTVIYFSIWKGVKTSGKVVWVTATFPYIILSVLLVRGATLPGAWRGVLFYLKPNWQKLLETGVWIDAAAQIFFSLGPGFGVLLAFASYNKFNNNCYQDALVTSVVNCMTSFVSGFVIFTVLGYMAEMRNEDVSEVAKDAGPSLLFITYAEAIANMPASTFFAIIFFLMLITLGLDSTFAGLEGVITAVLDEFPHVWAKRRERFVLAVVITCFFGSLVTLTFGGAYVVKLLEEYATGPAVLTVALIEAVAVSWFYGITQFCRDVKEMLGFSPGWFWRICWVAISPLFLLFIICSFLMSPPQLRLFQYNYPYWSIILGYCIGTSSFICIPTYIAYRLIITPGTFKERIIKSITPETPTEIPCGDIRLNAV
# Description: In HEK-293 cells overexpressing human SERT, the transporter inhibitory effect of the test compound on human SERT was assayed using a Neurotransmitter transporter uptake assay kit (Molecular devices).
# human DAT = human DAT (Homo sapiens, UniProt Q01959); assay: DAT transporter inhibitory activity test (neurotransmitter transporter uptake assay kit); format: cell-based
# human DAT, sequence (Q01959 whole entry): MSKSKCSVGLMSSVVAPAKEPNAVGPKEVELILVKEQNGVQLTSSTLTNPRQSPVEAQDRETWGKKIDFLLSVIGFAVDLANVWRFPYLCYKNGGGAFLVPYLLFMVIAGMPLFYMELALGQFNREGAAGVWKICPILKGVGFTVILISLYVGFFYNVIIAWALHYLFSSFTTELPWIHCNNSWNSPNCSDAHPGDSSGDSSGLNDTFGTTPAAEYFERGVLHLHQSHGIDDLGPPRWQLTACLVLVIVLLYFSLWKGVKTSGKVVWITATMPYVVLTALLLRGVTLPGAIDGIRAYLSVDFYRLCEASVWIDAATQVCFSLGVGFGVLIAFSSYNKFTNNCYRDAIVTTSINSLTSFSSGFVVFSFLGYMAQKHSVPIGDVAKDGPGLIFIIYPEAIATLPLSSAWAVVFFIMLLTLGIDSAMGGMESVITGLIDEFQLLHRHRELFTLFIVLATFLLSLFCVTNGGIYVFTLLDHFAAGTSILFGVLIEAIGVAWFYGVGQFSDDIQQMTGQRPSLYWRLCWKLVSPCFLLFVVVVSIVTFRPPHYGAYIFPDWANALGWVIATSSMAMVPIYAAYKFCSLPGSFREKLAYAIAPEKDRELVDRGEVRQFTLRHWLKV
# male C57 mice = assay: Forced swim test; format: in vivo; settings: intraperitoneal injection, test 0.5 h after dosing, motionless time in last 4 min
# Description: Drug: the compound of the present disclosure was first uniformly mixed with 5% DMSO and 5% Solutol® HS 15. hysiological saline was then added to make up 90% of the final volume. The mixture was prepared at an appropriate concentration immediately before use.
# Animal: male C57 mice, about 22 g. The animals were randomly divided into a blank control group and test drug groups, 8 animals per group, and mice in each group were administered either the vehicle or the test compound via intraperitoneal injection.
# Experimental steps: the mice were subjected to forced swim test 0.5 h after dosing. The water level in the forced swim device was 45 cm, and the water temperature was 25° C. The mice were placed in an experimental room to adapt to the environment for 1 h before the experiment began. When the experiment began, the mice were placed in the device for 6 min, and the whole process was recorded by a camera. Only the motionless time of the mice in the last 4 min was counted when data were analyzed.
# [2] = Human liver microsome assay (metabolic stability); format: in vitro ADME; settings: pH 7.4
# Summary of the method: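 Human liver microsomes 0.2 mg/mL with 1 μM compound, 3.0 mM MgCl2 and 2.0 mM NADPH in 0.1 M phosphate pH 7.4, 37 °C; sampled at 0–60 min. LC-MS/MS peak-area ratio to internal standard; T1/2 and CLint from slope of ln residual versus time.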
# Sigma1 receptor = Sigma1 receptor (Homo sapiens, UniProt Q99720); assay: Sigma receptor affinity assay ([3H]-DTG binding), Sigma1R
# Sigma1 receptor, sequence (Q99720 whole entry): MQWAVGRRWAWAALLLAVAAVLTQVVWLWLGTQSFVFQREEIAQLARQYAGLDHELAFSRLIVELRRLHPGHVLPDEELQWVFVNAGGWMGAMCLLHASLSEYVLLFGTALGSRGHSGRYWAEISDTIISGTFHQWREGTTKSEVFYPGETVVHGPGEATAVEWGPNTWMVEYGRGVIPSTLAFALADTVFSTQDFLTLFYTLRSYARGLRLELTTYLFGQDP
# Description: as §1, §2
# The cell membrane solution and isotope solution were prepared with the pre-cooled detection buffer, with the following configuration information: the membrane concentration was 10 μg/well, and the final concentration of isotopic ligand [3H]-DTG was 5 nM. • 5) After the test compound and the positive control were diluted to the working concentration, 1 μL was added to each well of the assay plate. […] […]. The affinity inhibition constant Ki was calculated using the Cheng Prusoff equation:
# human NET = human NET (Homo sapiens, UniProt P23975); assay: NET transporter inhibitory activity test (neurotransmitter transporter uptake assay kit); format: cell-based
# human NET, sequence (P23975 whole entry): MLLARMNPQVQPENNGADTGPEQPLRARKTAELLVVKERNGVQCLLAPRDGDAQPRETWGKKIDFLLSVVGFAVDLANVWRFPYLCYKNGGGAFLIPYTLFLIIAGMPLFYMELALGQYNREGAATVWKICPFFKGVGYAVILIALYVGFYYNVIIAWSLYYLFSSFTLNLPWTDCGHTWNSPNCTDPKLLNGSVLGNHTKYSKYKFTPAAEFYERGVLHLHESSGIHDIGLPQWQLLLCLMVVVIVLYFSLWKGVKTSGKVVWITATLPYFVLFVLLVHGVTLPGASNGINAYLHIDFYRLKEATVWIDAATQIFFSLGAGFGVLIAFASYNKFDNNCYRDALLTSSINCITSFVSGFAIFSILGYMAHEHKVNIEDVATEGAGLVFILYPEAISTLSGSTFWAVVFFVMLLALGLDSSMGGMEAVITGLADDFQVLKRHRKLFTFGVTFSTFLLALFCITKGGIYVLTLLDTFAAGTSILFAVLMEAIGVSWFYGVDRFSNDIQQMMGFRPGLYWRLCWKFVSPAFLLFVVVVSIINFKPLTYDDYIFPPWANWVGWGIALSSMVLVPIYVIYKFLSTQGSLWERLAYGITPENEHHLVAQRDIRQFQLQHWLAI
# Description: Transporter inhibition of human DAT and NET expressed in HEK-293 cells was assessed using a neurotransmitter transporter uptake assay kit. The assay was performed as described in the kit instructions, using centanafadine as a positive control. The specific procedures were as follows:
# First day cell plating: HEK 293T cells were digested with trypsin, centrifuged, resuspended with a medium, counted, and seeded into a 6 cm culture dish at a density of 3×10^6 cells/well.
# Second day cell transfection: HEK 293T cells were subjected to medium exchange, and then A, B tubes were prepared for NET-pcDNA5/FRT plasmid to be transfected. 200 μL of Opti-MEM was added to tube A, and 10 μL of Lipofectamine™ 3000 was added. The mixture was mixed well. 200 μL of Opti-MEM was added to tube B, and 5 μg of NET-pcDNA5/FRT plasmid was added. The mixture was mixed well, and then 10 μL of P3000™ was added to tube B. The mixture was mixed well (plasmid to transfection reagent ratio 1 μg:2 μL). The diluted solution of tube A was added to the diluted solution of tube B. The mixture was mixed well, and incubated at room temperature for 15 min. Finally, the mixture was gently added to the cells that had been subjected to medium exchange, gently shaken to mix, and then incubated overnight in an incubator at 37° C. with a carbon dioxide concentration of 5%. The cells were used for compound functional activity assays 18-20 h after transfection.
# • a) After overnight transfection of NET cells, the cells were digested with trypsin, resuspended with DMEM+10% Dialyzed FBS medium, seeded into a 384-well plate at 20000 cells/well, and incubated overnight. Stably transfected DAT cells were digested with trypsin, resuspended with DMEM+10% Dialyzed FBS medium, seeded into a 384-well plate at 2500 cells/well, and incubated overnight. • b) 1× Assay buffer was prepared according to the kit instruction for later use; the positive compound and the test compound were serially diluted with DMSO, and then diluted to 2× with 1× assay buffer. • c) The medium was removed from the 384-well plate by centrifugation. • d) 16 μL of the compound prepared in step b) was added to corresponding experimental wells, wherein an initial concentration of 2× positive control compound was added to the positive control well, and 0.2% DMSO buffer was added to the negative control well. After centrifuging, the plate was incubated at 37° C. for 30 min. • e) A detection reagent was prepared using 1×HBSS, and 16 μL of the detection reagent was added to each well. After centrifuging, the plate was incubated at 37° C. for 60 min. • f) After incubation, the reading at 510 nm under the excitation of the detection wavelength of 425 nm was measured using a microplate reader. Curve fitting and IC50 calculation were performed using GraphPad Prism software nonlinear regression method.
# [3] = target: T1, NMDA receptor (N-methyl-D-aspartate receptor, NR1/2A) (Homo sapiens, UniProt Q05586+Q12879); assay: NMDA receptor antagonistic activity assay (whole cell manual patch clamp, channel currents); format: cell-based; settings: HEK293 cells transiently expressing hNR1/2A; current evoked by 100 μM glutamic acid + 100 μM glycine at -70 mV; read-out: NMDAR antagonistic activity (IC50)
# T1 construct: T2A self-cleaving peptide (linker between NR1 and 2A) (C)
# T1 sequence (Q12879 23-1464, other chains not shown): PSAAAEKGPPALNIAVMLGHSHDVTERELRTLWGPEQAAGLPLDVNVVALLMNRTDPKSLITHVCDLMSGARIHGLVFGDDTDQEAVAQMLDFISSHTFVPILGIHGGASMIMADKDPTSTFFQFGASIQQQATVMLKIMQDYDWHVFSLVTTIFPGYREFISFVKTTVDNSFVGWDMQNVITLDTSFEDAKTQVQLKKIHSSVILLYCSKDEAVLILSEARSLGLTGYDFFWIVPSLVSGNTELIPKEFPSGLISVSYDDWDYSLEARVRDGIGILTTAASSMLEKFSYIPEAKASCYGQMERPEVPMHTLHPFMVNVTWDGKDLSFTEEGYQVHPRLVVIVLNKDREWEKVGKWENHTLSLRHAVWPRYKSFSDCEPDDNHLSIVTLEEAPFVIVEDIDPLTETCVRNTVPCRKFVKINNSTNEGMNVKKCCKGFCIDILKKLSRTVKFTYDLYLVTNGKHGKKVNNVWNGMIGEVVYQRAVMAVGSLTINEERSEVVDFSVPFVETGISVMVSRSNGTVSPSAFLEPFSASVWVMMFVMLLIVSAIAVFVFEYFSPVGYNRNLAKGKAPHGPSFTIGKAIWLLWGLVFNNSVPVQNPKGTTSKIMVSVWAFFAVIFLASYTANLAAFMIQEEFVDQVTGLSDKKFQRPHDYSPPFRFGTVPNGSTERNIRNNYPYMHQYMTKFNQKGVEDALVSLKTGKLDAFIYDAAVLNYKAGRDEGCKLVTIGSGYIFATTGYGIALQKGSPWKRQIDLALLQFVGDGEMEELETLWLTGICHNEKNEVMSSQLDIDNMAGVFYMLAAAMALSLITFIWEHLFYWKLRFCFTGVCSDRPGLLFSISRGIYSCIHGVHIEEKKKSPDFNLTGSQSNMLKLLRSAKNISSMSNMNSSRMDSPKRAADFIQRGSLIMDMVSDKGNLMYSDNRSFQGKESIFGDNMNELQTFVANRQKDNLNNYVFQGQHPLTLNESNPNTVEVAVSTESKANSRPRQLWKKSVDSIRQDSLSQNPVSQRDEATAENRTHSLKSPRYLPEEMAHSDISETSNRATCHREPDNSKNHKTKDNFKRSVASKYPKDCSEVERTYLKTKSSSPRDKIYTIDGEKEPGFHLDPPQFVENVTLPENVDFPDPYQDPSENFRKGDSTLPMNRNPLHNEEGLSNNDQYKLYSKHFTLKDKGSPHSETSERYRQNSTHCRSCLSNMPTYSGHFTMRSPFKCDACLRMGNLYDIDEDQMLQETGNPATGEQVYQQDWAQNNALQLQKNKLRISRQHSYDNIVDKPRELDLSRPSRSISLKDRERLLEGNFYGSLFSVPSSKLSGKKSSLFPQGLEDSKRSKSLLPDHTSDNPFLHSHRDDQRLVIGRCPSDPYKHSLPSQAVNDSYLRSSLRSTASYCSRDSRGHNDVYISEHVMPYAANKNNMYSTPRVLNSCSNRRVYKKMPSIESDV
# Description: The effect of the compounds on NMDA receptor (N-methyl-D-aspartate receptor, NR1/2A) channel currents was tested using the electrophysiological whole cell manual patch clamp method.
# The HEK293 cell line was cultured in DMEM medium containing 10% fetal bovine serum at 37° C. with 5% carbon dioxide.
# Preparation of compound: on the day of testing, the stock solution of the compound of the present disclosure was diluted with DMSO to an intermediate concentration, which was then further diluted with an extracellular solution (containing 100 μM glutamic acid+100 µM glycine) to obtain the final concentration to be tested. […] Electrophysiological recording
# Currents evoked by 100 μM glutamic acid (containing 100 μM glycine) were recorded at room temperature from HEK293 cells transiently expressing NMDA receptor channels using the whole-cell patch clamp technique. Glass microelectrodes were formed by pulling a glass electrode blank (BF150-86-10, Sutter) using a puller. The tip resistance after perfusion of electrode internal solution was about 2-5 MΩ. The glass microelectrodes could be connected to a patch clamp amplifier after being inserted into amplifier probes. […] After whole-cell recording was achieved, the cell was clamped at −70 mV. A gravity-driven rapid administration system was used to apply 100 μM glutamic acid (containing 100 μM glycine) to induce the channel current. After the current stabilized, the 100 μM glutamic acid (containing 100 μM glycine) was administered, and changes in current amplitude were observed. The compounds were administered sequentially from low to high concentration, followed by a final administration of 100 μM glutamic acid (containing 100 μM glycine). Each test concentration of the compound was applied for at least 20 s, and at least 2 cells (n≥2) were tested for each concentration. • d. Data processing
# Data were analyzed using pClamp, GraphPad Prism 8, and Excel software.
# The IC50 of the compound was calculated using the GraphPad Prism 8 software by equation fitting as follows:
# [formula] • where X is the Log value of the test concentration of the test sample, Y is the inhibition percentage at the corresponding concentration, and Bottom and Top are the minimum and maximum inhibition percentages, respectively.
# [4] = HEK293 membranes stably expressing Sigma2 receptor, [3H]-DTG 5 nM, read-out: Sigma2R (Ki)
# [5] = male ICR mice, oral 10 mg/kg vs iv 2.5 mg/kg, read-out: F (%)
# [6] = male ICR mice, oral 10 mg/kg, plasma, read-out: AUC0-inf(po)
# [7] = male ICR mice, oral 10 mg/kg, plasma, read-out: Cmax (po)
# [8] = male ICR mice, oral 10 mg/kg, plasma, read-out: T1/2 (po) (converted)
# [9] = human liver microsomes 0.2 mg/mL, 1 μM test drug, NADPH, 37° C., read-out: Half-life (t1/2, min)
# [10] = human liver microsomes 0.2 mg/mL, 1 μM test drug, NADPH, 37° C., read-out: Intrinsic clearance (Clint, mL/min/kg)
# [11] = DAT stably transfected HEK cells, read-out: DAT (IC50)
# Sigma2 receptor, sequence (Q5BJF2 whole entry, species assumed): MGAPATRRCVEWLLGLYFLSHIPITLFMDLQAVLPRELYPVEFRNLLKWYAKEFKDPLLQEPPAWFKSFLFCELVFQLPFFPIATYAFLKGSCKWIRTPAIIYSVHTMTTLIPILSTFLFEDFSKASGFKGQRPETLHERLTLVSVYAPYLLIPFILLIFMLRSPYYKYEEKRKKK
compound,measurement,setting,value
"CNC1(c2ccccc2)CCc2nc(N)sc2C1 (racemic) [rac-A3, N^6-methyl-6-phenyl-4,5,6,7-tetrahydrobenzothiazole-2,6-diamine]",Ki,Sigma2 receptor; [4],124 nM
same,AUC(0-inf),"[1]; male, ICR, po, 10 mg/kg, AUC0-inf(po) (ng*h/mL)",1160 ng·h/mL
same,Cmax,"[1]; male, ICR, po, 10 mg/kg, Cmax (po) (ng/mL)",330 ng/mL
same,bioavailability,"[1]; male, ICR, po, 10 mg/kg, F (%)",56%
same,half-life,"[1]; male, ICR, po, 10 mg/kg, T1/2 (po) (h)",2.85 h
same,IC50,human SERT,1200 nM
same,IC50,human DAT,1000 nM
same,Effective dose,male C57 mice,3 mg/kg
"CNC1(c2ccccc2)CCc2ncsc2C1 (racemic) [rac-A13, N-methyl-6-phenyl-4,5,6,7-tetrahydrobenzothiazol-6-amine]",Ki,Sigma2 receptor,308 nM
same,bioavailability,[1]; [5],78%
same,AUC(0-inf),[1]; [6],845 ng·h/mL
same,Cmax,[1]; [7],518 ng/mL
same,half-life,[1]; [8],1.98 h
same,half-life at 1 μM,[2]; [9],266 min
same,CLint scaled at 1 μM,[2]; [10],15.2 mL/min/kg
same,Effective dose,male C57 mice,2.5 mg/kg
"NC1(c2ccccc2)CCc2ccsc2C1 (racemic) [rac-A19, 6-phenyl-4,5,6,7-tetrahydrobenzothiophen-6-amine]",Ki,Sigma2 receptor,523 nM
same,bioavailability,[1]; [5],48%
same,AUC(0-inf),[1]; [6],797 ng·h/mL
same,Cmax,[1]; [7],284 ng/mL
same,half-life,[1]; [8],2.84 h
same,half-life at 1 μM,[2]; [9],80 min
same,CLint scaled at 1 μM,[2]; [10],50.6 mL/min/kg
"CNC1(c2ccccc2)CCc2sccc2C1 (racemic) [rac-A25, N-methyl-5-phenyl-4,5,6,7-tetrahydrobenzothiophen-5-amine]",Ki,Sigma1 receptor,280 nM
"Nc1nc2c(s1)CC(c1ccccc1)(N1CCCCC1)CC2 (racemic) [rac-A48, 6-phenyl-6-(piperidin-1-yl)-4,5,6,7-tetrahydrobenzothiazol-2-amine]",IC50,"human NET; NET transiently transfected HEK 293T cells, read-out: NET (IC50)",4600 nM
same,IC50,human DAT,760 nM
same,CLint scaled at 1 μM,"[2]; human, microsomes",7.4 mL/min/kg
same,half-life at 1 μM,"[2]; human, microsomes",547 min
same,Effective dose,male C57 mice,1 mg/kg
"Nc1nc2c(s1)CC(c1cccc(Cl)c1)(N1CCCCC1)CC2 (racemic) [rac-A49, 6-(3-chlorophenyl)-6-(piperidin-1-yl)-4,5,6,7-tetrahydrobenzothiazol-2-amine]",IC50,human NET,2500 nM
same,IC50,human SERT,1200 nM
same,IC50,human DAT; [11],330 nM
same,half-life at 1 μM,[2]; [9],117 min
same,CLint scaled at 1 μM,[2]; [10],34.7 mL/min/kg
CN[C@]1(c2ccccc2)CCc2nc(N)sc2C1 [R-A3],Ki,Sigma2 receptor; [4],1760 nM
same,IC50,human SERT,1200 nM
CN[C@]1(c2ccccc2)CCc2ncsc2C1 [R-A13],Ki,Sigma2 receptor; [4],289 nM
N[C@]1(c2ccccc2)CCc2ccsc2C1 [R-A19],Ki,Sigma2 receptor; [4],1270 nM
same,IC50,human SERT,1200 nM
c1ccc([C@@]2(N3CCCCC3)CCc3[nH]ncc3C2)cc1 [R-A70],IC50,[3],16000 nM
same,IC50,human DAT; [11],8400 nM
CN[C@@]1(c2ccccc2)CCc2nc(N)sc2C1 [S-A3],Ki,Sigma2 receptor; [4],990 nM
same,IC50,human DAT; [11],1600 nM
c1ccc([C@]2(N3CCCC3)CCc3[nH]ncc3C2)cc1 [S-A12],IC50,[3],180 nM
CN[C@@]1(c2ccccc2)CCc2ncsc2C1 [S-A13],Ki,Sigma2 receptor; [4],257 nM
same,IC50,[3],2500 nM
N[C@@]1(c2ccccc2)CCc2ccsc2C1 [S-A19],Ki,Sigma2 receptor; [4],1120 nM
c1ccc([C@]2(N3CCCCC3)CCc3[nH]ncc3C2)cc1 [S-A70],IC50,[3],840 nM
"N^4-methyl-4-phenyl-4,5,6,7-tetrahydrobenzothiazole-2,4-diamine [rac-A39]",IC50,[3],12000 nM
